From PubChem BioAssay AID2060513 (Molecular Pharmacology Branch, DTP, NCI, 2025)
Values joined by “and” are separate entries in the source; they are usually repeats but may differ in a detail not shown here. Identical values can stand only once.

Tested on: 299254-011-R-J1-PDC complex spheroids viability
Assay: Anticancer human tumor 299254-011-R-J1-PDC patient-derived melanoma cell line growth inhibition [GQUAD]
Conditions: for viability, T/C: stronger effect = lower value
From the text: DNA G-quadruplex Stabilizer Agents in Combinations in Complex Spheroids
A high-throughput screen of multi-cell type tumor spheroids was designed to identify active combinations of DNA G-quadruplex stabilizer agents and targeted small molecules. Complex spheroids include a stromal component modeled by human endothelial cells (HUVEC) and fibroblasts modeled by human mesenchymal stem cells (MSCs). The concentration ranges selected for each drug and investigational agent were based upon clinically achievable concentrations if the clinical Cmax of the agent was known.
Compounds. The drugs and investigational agents: pidnarulex (CX-5461; NSC782164), APTO-253 (NSC789042), BRACO-19 (NSC847499), peposertib (NSC802822), ceralasertib (NSC780249), elimusertib (NSC800525), camonsertib (NSC841442), AZD-1390 (NSC803789), olaparib (NSC753686), talazoparib (NSC767125), ART-558 (NSC835418), sotorasib (NSC818433), MRTX-1133 (NSC836407), SN-38 (NSC673596), topotecan (NSC609699), etoposide (NSC141540), doxorubicin (NSC123127), gemcitabine (NSC613327), 5-fluorouracil (NSC19893), paclitaxel (NSC125973), vemurafenib (NSC761431), panobinostat (NSC761190), R-306465 (JNJ-16241199; NSC773264), adavosertib (NSC754352), TP-3654 (NSC805149), carboplatin (NSC241240), KSQ-4279 (NSC840948), and staurosporine (NSC755774) were obtained from the National Cancer Institute (NCI) Developmental Therapeutics Program Chemical Repository (34). The FDA-approved anticancer drug set is available from the NCI Developmental Therapeutics Program. […] The stock solutions were prepared in dimethyl sulfoxide (DMSO, Sigma-Aldrich, St. Louis, MO, cat. D2650) at 800-fold the tested concentration and stored at -70 degrees C prior to their use. All drugs and investigational agents were tested over a range starting from a high concentration at or near the clinical Cmax and decreasing in half-log increments. If the clinical Cmax for an agent had not been determined, the highest concentration tested was 10 microM.
2.3 Cell Culture. All cells were maintained in an incubator at 37 degrees C and 5% CO2 with 95% humidity. The PDC lines were cultured according to standard operating procedures established by the NCI PDMR. All PDCs were thawed and cultured in Matrigel-coated flasks prepared with a working solution of 1X Ham's F-12 nutrient mix, without supplementation (Invitrogen, cat. 11765054), 100 U/mL penicillin-streptomycin (Invitrogen, cat. 15140122), and 2.5% Matrigel (Corning Inc., cat. 354248) for the first three passages. The 857933-349-R-J2-PDC line was cultured in 6C/Colon 1B media, which includes advanced DMEM/F-12 (Thermo Fisher Scientific, cat. 12634028), 10 mM HEPES (Thermo Fisher Scientific, cat. 15630080), 1X GlutaMAX supplement (Thermo Fisher Scientific, cat. 35050061), 0.1 mg/mL primocin (InvivoGen, cat. ant-pm-2), 10% defined fetal bovine serum, heat inactivated (HyClone Laboratories Inc., cat. SH30070.03HI), 50% L-WRN conditioned media (ATCC, cat. CRL-3276), 1.25 mM N-Acetyl-L-cysteine (Sigma-Aldrich, cat. A9165), 10 mM nicotinamide (Sigma-Aldrich, cat. N0636), 1X B-27 supplement (Thermo Fisher Scientific, cat. 17504044), 1X N-2 supplement (Thermo Fisher Scientific, cat. 17502048), 10 microM Y-27632 dihydrochloride (Tocris Bioscience, cat. 1254), and 50 ng/mL human EGF recombinant protein (Thermo Fisher Scientific, cat. PHG0311). The 485176-168-R4-J1-PDC line was cultured in Panc media, which includes all 6C/Colon 1B media components plus 100 ng/mL human FGF-10 (Thermo Fisher Scientific, cat. 100-26), 500 nM SB-431542 (Selleckchem, cat. S1067), and gastrin (Tocris, cat. 3006).
[…]
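Further: spheroids exposed to the agents for seven days before readout.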
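Wherever viability, T/C is given: percent viability relative to DMSO vehicle control wells = 100%.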

`C=CC(=O)N1CCN(c2nc(=O)n(-c3c(C)ccnc3C(C)C)c3nc(-c4c(O)cccc4F)c(F)cc23)C(C)C1` (stereo not drawn) was tested, and the viability, T/C (compound 0.0316 µM) was 79% and 95.8% and 88.2%, the viability, T/C (compound 0.1 µM) was 57.3% and 82.7% and 63.5% and the viability, T/C (compound 0.316 µM) was 81% and 65.1% and 59%. The viability, T/C (compound 1 µM) was 59.5% and 59.8% and 59%, the viability, T/C (compound 3.16 µM) was 60.7% and 61% and 69.7% and the viability, T/C (compound 10 µM) was 68.5% and 69.6% and 66.1%. The IC50 (curve of compound) was over 10 µM.

In the case of `C=CC(=O)N1CCN(c2nc(=O)n(-c3c(C)ccnc3C(C)C)c3nc(-c4c(O)cccc4F)c(F)cc23)C(C)C1` (stereo not drawn) + CN(C)c1ccc(Nc2c3ccc(NC(=O)CCN4CCCC4)cc3nc3cc(NC(=O)CCN4CCCC4)ccc23)cc1, the IC50 (curve of first compound, second compound 0.0316 µM) is reported as over 10 µM, the IC50 (curve of first compound, second compound 0.1 µM) is reported as over 10 µM and the IC50 (curve of first compound, second compound 0.316 µM) is reported as over 10 µM. It also gave an IC50 (curve of first compound, second compound 1 µM) of over 10 µM, an IC50 (curve of first compound, second compound 3.16 µM) of over 10 µM and an IC50 (curve of first compound, second compound 10 µM) of over 10 µM. The viability, T/C (second compound 0.0316 µM, first compound 0.0316 µM) was 93.8%, the viability, T/C (second compound 0.0316 µM, first compound 0.1 µM) was 68.9% and the viability, T/C (second compound 0.0316 µM, first compound 0.316 µM) was 73.1%. The viability, T/C (second compound 0.0316 µM, first compound 1 µM) was 56.3%, the viability, T/C (second compound 0.0316 µM, first compound 3.16 µM) was 64.4% and the viability, T/C (second compound 0.0316 µM, first compound 10 µM) was 66.6%. It also gave a viability, T/C (second compound 0.1 µM, first compound 0.0316 µM) of 79.4%, a viability, T/C (second compound 0.1 µM, first compound 0.1 µM) of 80.2% and a viability, T/C (second compound 0.1 µM, first compound 0.316 µM) of 57%. The viability, T/C (second compound 0.1 µM, first compound 1 µM) was 60.4%, the viability, T/C (second compound 0.1 µM, first compound 3.16 µM) was 74.7% and the viability, T/C (second compound 0.1 µM, first compound 10 µM) was 74.3%. It also gave a viability, T/C (second compound 0.316 µM, first compound 0.0316 µM) of 76.2%, a viability, T/C (second compound 0.316 µM, first compound 0.1 µM) of 81.3% and a viability, T/C (second compound 0.316 µM, first compound 0.316 µM) of 62.3%. For the same compound, the viability, T/C (second compound 0.316 µM, first compound 1 µM) was 68.2%, the viability, T/C (second compound 0.316 µM, first compound 3.16 µM) was 67.3% and the viability, T/C (second compound 0.316 µM, first compound 10 µM) was 65.4%. It also gave a viability, T/C (second compound 1 µM, first compound 0.0316 µM) of 81.1%, a viability, T/C (second compound 1 µM, first compound 0.1 µM) of 74% and a viability, T/C (second compound 1 µM, first compound 0.316 µM) of 71.8%. For the same compound, the viability, T/C (second compound 1 µM, first compound 1 µM) was 67.4%, the viability, T/C (second compound 1 µM, first compound 3.16 µM) was 80% and the viability, T/C (second compound 1 µM, first compound 10 µM) was 65%. For the same compound, the viability, T/C (second compound 3.16 µM, first compound 0.0316 µM) was 71.2%, the viability, T/C (second compound 3.16 µM, first compound 0.1 µM) was 83.3% and the viability, T/C (second compound 3.16 µM, first compound 0.316 µM) was 75.8%. For the same compound, the viability, T/C (second compound 3.16 µM, first compound 1 µM) was 60.4%, the viability, T/C (second compound 3.16 µM, first compound 3.16 µM) was 73% and the viability, T/C (second compound 3.16 µM, first compound 10 µM) was 79.1%. For the same compound, the viability, T/C (second compound 10 µM, first compound 0.0316 µM) was 74.4%, the viability, T/C (second compound 10 µM, first compound 0.1 µM) was 74.8% and the viability, T/C (second compound 10 µM, first compound 0.316 µM) was 74.7%. For the same compound, the viability, T/C (second compound 10 µM, first compound 1 µM) was 68.2%, the viability, T/C (second compound 10 µM, first compound 3.16 µM) was 69.7% and the viability, T/C (second compound 10 µM, first compound 10 µM) was 76.8%.

For `Cc1[nH]c2ccc(F)cc2c1-c1nc2c3cccnc3c3ncccc3c2[nH]1`, the viability, T/C (compound 0.0316 µM) was 99.1% [middle of 12 runs], the viability, T/C (compound 0.316 µM) was 95.6% [middle of 12 runs] and the IC50 (compound alone, run of 02/20/2024) was over 10 µM. The IC50 (compound alone, run of 02/26/2024) was over 10 µM.
